We go through 90 compounds from PubChem BioAssay AID540252 (Sanford-Burnham Center for Chemical Genomics, 2011).

Activity calls are given as the source filed them. The rule behind the calls is not given here. Where only a bound is given, the exact number is not on record here.

In the assay the target is glucose-6-phosphate dehydrogenase-6-phosphogluconolactonase (Plasmodium falciparum 3D7). Description: inhibition of P. falciparum G6PD activity – biochemical, end-point NADPH detection, orthogonal assay, dose response (AID 540252). The settings on record: purified PfG6PD enzyme, NADPH direct detection.
By IC50 is commonly meant the point on the concentration scale where inhibition reaches its midpoint. Take `O=c1c2ccccc2sn1-c1ccccc1`: the half-inhibitory concentration (IC50) was 7.9 µM. Take `O=C(N/N=C/c1cccc([N+](=O)[O-])c1)C(=O)N1CCCCCC1`: the IC50 was > 80 µM (inactive). As for `CN(C)c1ccc(C=c2c3cc([N+](=O)[O-])ccc3n3c2cc(-c2ccccc2)[n+]3C)cc1`, the IC50 is 33.2 µM. The figure for `COc1ccc(S(=O)(=O)/N=C2\C=C(Nc3ccc(O)cc3)C(=O)c3ccccc32)cc1` is > 80 µM (inactive); for `O=C(NC1=CC(=O)c2ccccc2C1=O)c1ccccc1` it is > 80 µM (inactive). With `CCOc1ccccc1NS(=O)(=O)c1c(C)noc1C`, the IC50 is > 80 µM (inactive). The figure for `O=C(Cc1ccccc1)NCC(=O)OCC(=O)c1ccc([N+](=O)[O-])cc1` is 64 µM; for `Nc1ccc(N(CCO)CCO)cc1` it is > 80 µM (inactive). For `COc1ccc(CN(C)S(=O)(=O)c2nnc(NC(=O)c3ccc(C)cc3)s2)cc1OC`, the IC50 was > 80 µM (inactive).

`ClC(Cl)(c1nnnn1-c1ccccc1)c1nnnn1-c1ccccc1`: the IC50 was 56.2 µM.

With `COc1cc(NCc2ccccc2)c2ncn(C(C)C)c2c1`, the IC50 is > 80 µM (inactive). Consider `Brc1cc2[nH]cnc2c2ccccc12`, for which the IC50 was > 80 µM (inactive). The figure for `O=S(=O)(Nc1cc(Sc2cccc3cccnc23)c(O)c2ccccc12)c1ccc(F)cc1` is > 80 µM (inactive); for `Cc1ccc(C(=O)NCC(=O)NCC(=O)OCC(=O)c2ccc([N+](=O)[O-])cc2)cc1` it is 48.4 µM; for `COc1ccc(OC)c2c1C(=O)C(Cl)=C(Cl)C2=O` it is 23.3 µM. `CCN1/C(=C/C=C/C=C/C=C/c2sc3ccccc3[n+]2CC)Sc2ccccc21`: the IC50 was > 80 µM (inactive).

Consider `COC(=O)CCC(=O)OC1(C)C(=O)C2=CN(c3ccccc3)C(c3ccc(OC)cc3)=CC2=C(Br)C1=O` (stereo not given), for which the IC50 is > 80 µM (inactive).

Consider `Cc1nc2c(o1)C(=O)c1ccccc1C2=Nc1ccccc1`, for which the IC50 was > 80 µM (inactive). Regarding `Cc1ccc(/C=C/C(=O)NCc2ccc(S(N)(=O)=O)cc2)o1`, the IC50 is > 80 µM (inactive). The figure for `COc1cc(N)c2ncsc2c1` is > 80 µM (inactive). The figure for `CCC(CO)[n+]1c(C)cc(/C=C2\Sc3ccccc3N2Cc2ccccc2)cc1C` (stereo not given) is > 80 µM (inactive).

Turning to `Cc1nnc(N/N=C/c2ccc(-c3ccccc3F)o2)n1N`, the IC50 is > 80 µM (inactive). The figure for `Cc1cc(O)c(-c2cc(O)c(C)cc2O)cc1O` is > 80 µM (inactive); for `CC1(OC(=O)C2CCCC2)C(=O)C=C2C=C(c3ccsc3)N(CC3CC3)C=C2C1=O` (stereo not given) it is > 80 µM (inactive); for `CCOC(=O)c1c(OCC)[nH]c2c1cc(O)c1ccccc12` it is > 80 µM (inactive).

With `C/C(Cn1nnc([N+](=O)[O-])n1)=N\NC(=O)c1ccccc1O`, the IC50 is > 80 µM (inactive).

For the compound `O=C1C=CC(=O)N1c1ccc(N2CCCCC2)cc1`, the 50% inhibitory concentration (IC50) was 38 µM. `C[C@H](NC(=O)c1cc2c(cn1)[nH]c1ccccc12)C(=O)O`: the IC50 was > 80 µM (inactive). Take `O=c1c2cc(F)ccc2sn1-c1ccccc1Cl`: the IC50 was 13.8 µM.

Turning to `Cc1ccc(/C=C/C(=O)N2CCN(S(=O)(=O)c3ccc(C)c(C)c3)CC2)o1`, the IC50 was > 80 µM (inactive). Consider `C[c-]1[c-](C)[c-](C)[c-](C)[c-]1C.[Fe].c1cc2nccc(N3CCCC3)[c-]2c1` (stereo not given), for which the IC50 is > 80 µM (inactive).

On to `O=C(OCC(=O)c1ccc([N+](=O)[O-])cc1)/C(=C\c1ccc(Cl)cc1)NC(=O)c1ccccc1`, for which the IC50 is > 80 µM (inactive). The figure for `Cc1ccc(-c2c(C(=O)N/N=C/c3ccc(C)o3)nnn2-c2nonc2N)cc1` is > 80 µM (inactive); for `O=C1Nc2cc(C(=O)NCCCN3CCCC3)ccc2S/C1=C/c1cccc(Cl)c1` it is > 80 µM (inactive); for `CCS(=O)(=O)N1CCN(c2ccc([N+](=O)[O-])c(NC(C)c3ccccc3)c2)CC1` (stereo not given) it is > 80 µM (inactive). The figure for `CC(=O)c1cccc(NC(=O)c2cnn(-c3ccccc3)c2C)c1` is > 80 µM (inactive). The figure for `CN1C(=O)C(N=Nc2ccc([N+](=O)[O-])cc2)SC1=S` (stereo not given) is > 80 µM (inactive); for `Clc1nssc1=Nc1nncs1` it is 35.6 µM; for `Cc1nnc(N/N=C\c2ccc(-c3cccc(C(=O)O)c3)o2)n1N` it is > 80 µM (inactive). Take `Cc1cc(C(=O)O)ccc1-n1c(C)cc(C=C2C(=O)c3ccccc3C2=O)c1C`: the IC50 is > 80 µM (inactive).

As to `COc1cc(-c2cc(=O)c3c(O)c(OC)c(OC)c(O)c3o2)ccc1O`, the IC50 was > 80 µM (inactive). Turning to `CCN(CC)c1ccc(NC(=O)c2cccc(C)c2)cc1S(=O)(=O)Nc1ccccc1OC`, the IC50 is > 80 µM (inactive). Consider `CN(C)c1cccc2c1c(NC(=O)c1ccc(Cl)cc1)nn2C`, for which the IC50 is > 80 µM (inactive).

`COc1ccc(CCn2c(NN=C3CCCC3)nc3c2c(=O)[nH]c(=O)n3C)cc1`: the IC50 was > 80 µM (inactive). The figure for `O=C(COc1ccccc1F)OCC(=O)c1ccc([N+](=O)[O-])cc1` is 44.6 µM. For the compound `O=C(Nc1nnc(S(=O)(=O)N2CCOCC2)s1)c1ccc(F)cc1`, the IC50 was > 80 µM (inactive).

Regarding `Cc1cc(N=NC(=O)c2ccccc2O)c2ccccc2c1O`, the IC50 was > 80 µM (inactive). The figure for `COc1ccc(CCn2c(NN)nc3c2c(=O)[nH]c(=O)n3C)cc1` is > 80 µM (inactive); for `O=C(Nc1ccc(N2CCOCC2)c(Cl)c1)c1ccc(Cl)cc1` it is > 80 µM (inactive). The figure for `CCOc1ccc(CNc2ccc(N3CCCC3)cc2)cc1` is > 80 µM (inactive); for `NS(=O)(=O)c1ccc(N/N=C/c2ccc(O)c(O)c2O)c([N+](=O)[O-])c1` it is 36.3 µM.

For the compound `Cc1ccc(/C=C/C(=O)NC2CCCCCCC2)o1`, the IC50 is > 80 µM (inactive). The figure for `COc1ccc(NC(=S)N(CCC(C)C)C2CCN(C(C)C)CC2)cc1Cl` is > 80 µM (inactive); for `O=C(CBr)c1ccc([N+](=O)[O-])c(CS(=O)(=O)c2ccc(Cl)cc2)c1` it is 42.5 µM. As to `CNCc1ccccc1Sc1cc(O)ccc1O`, the IC50 is > 80 µM (inactive).

As for `O=c1[nH]sc2cc(F)ccc12`, the IC50 was > 80 µM (inactive). The figure for `O=c1[nH]nc(CNc2ccc(O)cc2)c2ccccc12` is > 80 µM (inactive). For the compound `CC(=O)OCC1(C)CN(c2ccccc2)NC1=O` (stereo not given), the IC50 is > 80 µM (inactive). Consider `Cc1ccc(-c2nc(N)s[n+]2-c2ccccc2)cc1`, for which the IC50 was 60.3 µM.

Turning to `COc1cc(O)c(C(=O)O)c(-c2cc(O)c(O)cc2C)c1`, the IC50 is > 80 µM (inactive). The figure for `COCCNC(=S)Nc1ccc(N2CCOCC2)c(S(=O)(=O)Nc2ccc(Cl)cc2)c1` is > 80 µM (inactive); for `CCN1CCN(c2nc(C)nc3c2sc(=S)n3C)CC1` it is 43.7 µM. As for `Cc1cc(C)c2c(=O)n(CC(=O)NC3CCCC3)sc2n1`, the IC50 was > 80 µM (inactive). The figure for `Cc1ccc(S(=O)(=O)SCCCSS(=O)(=O)c2ccc(C)cc2)cc1` is 38.8 µM; for `CCOC(=O)Nc1ccc(NCc2ccc(F)cc2)nc1N` it is > 80 µM (inactive). The figure for `N#Cc1ccc(N=c2ssnc2Cl)cc1` is 49 µM; for `O=C(CNc1ccc2c(c1)OCO2)N/N=C\c1cn(Cc2ccccc2)c2ccccc12` it is > 80 µM (inactive); for `COc1cccc(C(=O)Nc2nnc(S(=O)(=O)N(C)Cc3ccccc3)s2)c1` it is > 80 µM (inactive). The figure for `O=c1c2ccccc2sn1-c1nccs1` is 26.2 µM; for `CC1(OC(=O)C2CCCC2)C(=O)C=C2C=C(c3ccsc3)N(Cc3ccc4c(c3)OCO4)C=C2C1=O` (stereo not given) it is > 80 µM (inactive); for `Cc1ccc(S(=O)(=O)Nc2nc(C)c(C(=O)N/N=C/c3ccccc3)s2)cc1` it is > 80 µM (inactive). In the case of `CCOC(=O)Cc1cc(=O)n2[nH]c(C(C)(C)C)cc2n1`, the IC50 was > 80 µM (inactive). As to `O=C(CCc1ccc(O)c(O)c1)N/N=C/c1cc2c(cc1[N+](=O)[O-])OCO2`, the IC50 is > 80 µM (inactive). In the case of `O=C1C=CC(=O)N1c1ccc(-c2nc3ccccc3o2)cc1`, the IC50 is > 80 µM (inactive). The figure for `COc1cc(N(C)C)ccc1C=c1c2ccccc2n2c1cc(-c1ccccc1)[n+]2C` is > 80 µM (inactive); for `CC(Cc1ccc(O)c(O)c1)C(C)Cc1ccc(O)c(O)c1` (stereo not given) it is 68.4 µM; for `O=S(=O)(Nc1ccc(Cl)cc1)c1ccc(N2CCOCC2)c(NC(=S)NCCN2CCOCC2)c1` it is > 80 µM (inactive).

Regarding `S=C(NN=Cc1ccccn1)N(Cc1ccccn1)Cc1ccccn1`, the IC50 was > 80 µM (inactive). The figure for `COc1cc(NCc2ccccc2)c2ncn(Cc3ccccc3)c2c1` is > 80 µM (inactive). Take `COc1ccccc1NS(=O)(=O)c1cc(NC(=O)c2ccc(Cl)nc2)ccc1N1CCCC1`: the IC50 was > 80 µM (inactive). The figure for `O=S(=O)(Nc1cc(Sc2ncn[nH]2)c(O)c2ccccc12)c1ccccc1` is > 80 µM (inactive); for `COc1ccc(CCn2c(NN=C(C)C)nc3c2c(=O)[nH]c(=O)n3C)cc1` it is > 80 µM (inactive). Take `Cc1ccc(S(=O)(=O)NNc2ccccc2)cc1`: the IC50 is 37.9 µM. The figure for `Cc1cccc(C(=O)Nc2sc3c(c2C(=O)O)CCCC3)c1` is > 80 µM (inactive). The figure for `CCCNC(=O)Cn1sc2nc(C)cc(C)c2c1=O` is > 80 µM (inactive); for `C[C@H](CO)N1C[C@H](C)[C@@H](CN(C)C(=O)Nc2ccc(C(F)(F)F)cc2)Oc2c(cccc2N(C)C)C1=O` it is > 80 µM (inactive); for `CC(CNc1ccccc1O)C(=O)O` (stereo not given) it is > 80 µM (inactive). As for `CC1CCc2c(nc3sc4c(c3c2N)CCCC4)C1` (stereo not given), the IC50 was > 80 µM (inactive). The figure for `Cc1cc(C)c2c(=O)n(CC(=O)Nc3cccc(Cl)c3C)sc2n1` is > 80 µM (inactive). The figure for `COC(=O)CCC(=O)Nc1sc(Cc2ccccc2)c(C)c1C(N)=O` is > 80 µM (inactive).
